Reference: patent publication US4663326A, “Pyrazolo[4,3-d]pyrimidine-5,7-(4H,6H)dione or -5-thione-7-one analogs” (Warner-Lambert Company, priority 1985, dated 1987)
“And” between values parts separate entries of the source, which are not always exact repeats. Equal entries are not always repeated.

How the values were obtained:
Type 1 Phosphodiesterase = test: PDE inhibition, Type 1 phosphodiesterase, cardiac muscle; format: biochemical; conditions: 1 × 10^-4 M
Method: (§1) Phosphodiesterase activity was measured as described previously (Weishaar, P. E., Quade, M., Boyd, D., Schenden, J., Mark, S. S., Kaplan, H. R., Drug Devel. Res., 3:517-534, 1983), in a reaction medium containing 40 mM Tris-HCl (pH 8.0), 5 mM MgCl and 4 mM 2-mercaptoethanol. Unless otherwise noted, the concentration of substrate (^3 H-cyclic AMP or ^3 H-cyclic GMP) was 1.0 μM. All agents examined were dissolved in dimethyl sulfoxide (DMSO). Final concentration of the reaction medium was either 2.5% (cardiac and platelet studies) or 1.25% (smooth muscle studies). This concentration of DMSO produced an approximately 10% inhibition of enzyme activity. […] Three to four such concentration-response curves were generated for each agent, generally using different enzyme preparations for each concentration-response.

[1] = target: T1, adenosine receptors (designated A1) (Rattus norvegicus, UniProt P25099); test: Adenosine receptor binding - A1 receptor affinity (RBA1), [3H]-CHA displacement, rat whole brain minus cerebellum and brainstem membranes; parameters: species or system rat (male Long Evans); conditions: 1.0 nM [3H]-CHA, 25° C., pH 7.7; repeat tests (Test 1-4) one line each; read-out: RBA-1 (IC50, adenosine A1 affinity)
T1 construct: Whole brain minus cerebellum and brainstem from male Long Evans rats (150-200 g); from tissue; host or cells: whole brain minus cerebellum and brainstem, male Long Evans rats, membranes
T1 sequence (P25099 1-326): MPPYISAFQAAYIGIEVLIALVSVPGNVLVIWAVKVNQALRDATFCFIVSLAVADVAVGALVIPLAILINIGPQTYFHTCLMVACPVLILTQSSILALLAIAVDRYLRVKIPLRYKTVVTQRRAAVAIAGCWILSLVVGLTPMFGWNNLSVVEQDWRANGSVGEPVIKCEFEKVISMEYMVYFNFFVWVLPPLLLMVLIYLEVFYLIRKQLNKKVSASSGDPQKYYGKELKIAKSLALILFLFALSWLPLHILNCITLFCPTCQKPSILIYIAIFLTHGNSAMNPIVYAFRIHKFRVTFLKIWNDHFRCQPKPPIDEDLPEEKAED
Method: ADENOSINE RECEPTOR BINDING-A1 RECEPTOR AFFINITY (RBA1)
Whole brain minus cerebellum and brainstem from male Long Evans rats (150-200 g) was homogenized in 30 volumes of ice-cold 0.05M Tris-HCl buffer pH 7.7 using a Brinkman Polytron PT-10, (setting number 6 for 20 seconds) and centrifuged for ten minutes at 20,000×g (Sorvall RC-2), 4° C. The supernatant was discarded, and the pellet was resuspended and centrifuged as before. The pellet was resuspended in 20 ml Tris-HCl buffer containing two International Units/ml of adenosine deaminase (Sigma type III from calf intestinal mucosa), incubated at 37° C. for 30 minutes, then subsequently at 0° C. for ten minutes. The homogenate was again centrifuged, and the final pellet was resuspended in ice-cold 0.05M Tris-HCl buffer pH 7.7 to a concentration of 20 mg/ml original wet tissue weight and used immediately.
Tissue homogenate (10 mg/ml) was incubated in 0.05M Tris-HCl buffer pH 7.7 containing 1.0 nM [^3 H]-N^6 -cyclohexyladenosine (^3 H]-CHA) with or without test agents in triplicate for one hour at 25° C. Incubation volume was 2 ml. Unbound [^3 H]-CHA was separated by rapid filtration under reduced pressure through Whatman glass fiber (GF/B) filters. The filters were rinsed three times with 5 ml of ice cold 0.05M Tris-HCl buffer pH 7.7. The radio-labeled ligand retained on the filter was measured by liquid scintillation spectrophotometry after shaking the filters for one hour or longer on a mechanical shaker in 10 ml of Beckman Ready-Solv HP scintillation cocktail.
Nonspecific binding was defined as the binding which occurred in the presence of 1 mM theophylline. The concentration of test agent which inhibited 50% of the specific binding (IC50) was determined by nonlinear computer curve fit. The Scatchard plot was calculated by linear regression of the line obtained by plotting the amount of radioligand bound ([…]) versus [bound radioligand/free radioligand].Since the amount of radioligand bound was a small fraction of the total amount added, free radioligand was defined as the concentration (nM) of radioligand added to the incubation mixture. The Hill coefficient was calculated by linear regression of the line obtained by plotting the log of the bound radioligand vs the log of the [bound radioligand/(Bmax -bound radioligand)]. The maximal number of binding sites (Bmax) was calculated from the Scatchard plot.

Type 3 Phosphodiesterase = test: PDE inhibition, Type 3 phosphodiesterase, cardiac muscle; format: biochemical; conditions: 1 × 10^-4 M
Method: as §1

Type 2 Phosphodiesterase = target: T2, Type 2 Phosphodiesterase (Cavia porcellus, UniProt A0A286XUV5); test: PDE inhibition, Type 2 phosphodiesterase, cardiac muscle; format: biochemical; parameters: inhibition: dose or concentration left out as unconfirmed; conditions: for inhibition at 100 µM: 1 × 10^-4 M, read-out: % Inhibition of 3H-cGMP Hydrolysis, Type 2 Phosphodiesterase; for inhibition: read-out: % Inhibition of 3H-cAMP Hydrolysis, Type 2 Phosphodiesterase
T2 construct: from tissue
T2 sequence (A0A286XUV5 22-936): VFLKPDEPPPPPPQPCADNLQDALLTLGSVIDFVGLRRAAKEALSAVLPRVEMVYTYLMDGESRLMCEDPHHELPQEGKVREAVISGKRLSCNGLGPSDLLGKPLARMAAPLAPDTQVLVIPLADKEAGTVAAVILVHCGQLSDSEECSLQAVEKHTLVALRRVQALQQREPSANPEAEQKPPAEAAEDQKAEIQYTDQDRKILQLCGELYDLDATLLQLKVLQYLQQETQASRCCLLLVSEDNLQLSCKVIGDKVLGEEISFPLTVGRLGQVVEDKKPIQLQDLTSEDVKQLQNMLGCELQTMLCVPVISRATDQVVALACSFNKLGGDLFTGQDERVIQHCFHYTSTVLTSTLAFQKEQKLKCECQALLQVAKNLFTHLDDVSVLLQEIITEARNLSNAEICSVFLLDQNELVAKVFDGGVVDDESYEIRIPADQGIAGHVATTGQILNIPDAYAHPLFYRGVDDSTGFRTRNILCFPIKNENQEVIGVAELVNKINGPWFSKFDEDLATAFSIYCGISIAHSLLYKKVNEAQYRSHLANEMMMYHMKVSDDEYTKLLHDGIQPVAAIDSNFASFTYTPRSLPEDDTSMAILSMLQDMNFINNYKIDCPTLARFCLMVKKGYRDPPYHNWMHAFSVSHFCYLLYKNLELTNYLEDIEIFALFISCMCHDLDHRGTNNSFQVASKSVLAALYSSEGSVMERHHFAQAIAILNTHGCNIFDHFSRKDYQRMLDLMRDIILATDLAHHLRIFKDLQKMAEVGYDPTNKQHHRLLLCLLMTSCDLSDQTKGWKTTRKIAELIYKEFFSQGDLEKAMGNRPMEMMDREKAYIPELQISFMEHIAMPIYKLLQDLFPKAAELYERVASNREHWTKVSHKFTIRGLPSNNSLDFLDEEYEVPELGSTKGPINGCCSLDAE
Method: as §1

histamine = test: Bronchodilator test (BCA), histamine spasmogen, guinea pigs; format: in vivo, Hartley Guinea Pigs; parameters: key: Active; conditions: 50 mg/kg
Source text: The compounds of this invention may be determined to have antiallergy activity by a standard laboratory means employing the bronchodilator test (BCA) readily accepted as a standard for antiallergy activity, which is described in Siegmund, H. O., et al (J. Pharmacol. and Exptl., 90:254, 1949 and Herxheimer, H., J. Physiol., 117: 252-255, 1952). Thus, antiallergy activity was found for compounds of this invention by this BCA test using Hartley Guinea Pigs by the procedures as described below.
Naive (BCA) pigs are exposed to spasmogen for ten minutes by means of a De Vilbiss number 40 nebulizer positioned at the back of a closed, six unit plexiglas chamger (19×12.5×9"). Air flow is adjusted to give a pressure of 10 lbs/in; six animals per treatment are averaged, and the mean value for compound treated animals is compared to that for animals treated with vehicle. […]
The spasmogen may be acetylcholine chloride (0.3%), histamine (0.1%), methacholine chloride (Mecholyl) (0.1%) or serotonin creatinine sulfate. Each nebulizer dispenses 0.2 cc/minute.

| SMILES | % Inhibition of 3H-cAMP Hydrolysis, Type 1 Phosphodiesterase (Type 1 Phosphodiesterase) | % Inhibition of 3H-cGMP Hydrolysis, Type 1 Phosphodiesterase (Type 1 Phosphodiesterase) | IC50 [1] | % Inhibition of 3H-cAMP Hydrolysis, Type 3 Phosphodiesterase (Type 3 Phosphodiesterase) | inhibition at 100 µM (Type 2 Phosphodiesterase) | inhibition (Type 2 Phosphodiesterase) | BCA Results, Ratings (histamine) |
| --- | --- | --- | --- | --- | --- | --- | --- |
| CCn1nc(C)c2[nH]c(=O)[nH]c(=O)c21 [Example 3, 1-Ethyl-3-methyl-1H-pyrazolo[4,3-d]pyrimidine-5,7(4H,6H)dione] | B (36-55% inhibition at 1 × 10^-5 M) | B (36-55% inhibition at 1 × 10^-5 M) | 5.88 µM | A (56-100% inhibition at 1 × 10^-5 M) | 36 to 55% | 36 to 55% | A |
| CCn1nc(C)c2[nH]c(=O)n(C)c(=O)c21 [Example 6, 1-Ethyl-3,6-dimethyl-1H-pyrazolo-[4,3-d]pyrimidine-5,7-[4H,6H]dione] | A (56-100% inhibition at 1 × 10^-5 M) | A (56-100% inhibition at 1 × 10^-5 M) | 2.53 µM | A (56-100% inhibition at 1 × 10^-5 M) | 56 to 100% | 36 to 55% | A |
| CCn1c(=O)c2c(c(C)nn2C)n(CC)c1=O [Example 8, 4,6-Diethyl-1,3-dimethyl-1H-pyrazolo[4,3-d]pyrimidine-5,7-[4H,6H]dione] | B (36-55% inhibition at 1 × 10^-5 M) | B (36-55% inhibition at 1 × 10^-5 M) | – | A (56-100% inhibition at 1 × 10^-5 M) | 56 to 100% | 56 to 100% | A |
| CCn1c(=O)[nH]c2c(C)nn(CC)c2c1=O [Example 4, 1-Ethyl-3-methyl-6ethyl-1H-pyrazolo[4,3-d]pyrimidine-5,7-[4H,6H]dione] | A (56-100% inhibition at 1 × 10^-5 M) | A (56-100% inhibition at 1 × 10^-5 M) | 1.04 µM and 1.52 µM | A (56-100% inhibition at 1 × 10^-5 M) | 56 to 100% | 56 to 100% | A |
| Cc1nn(C)c2c(=O)n(C)c(=O)n(C)c12 [Example 7, 1,3,4,6-tetramethyl-1H-pyrazolo[4,3-d]pyrimidine-5,7-[4H,6H]dione] | C (21-35% inhibition at 1 × 10^-5 M) | N (0-20% inhibition at 1 × 10^-5 M) | – | C (21-35% inhibition at 1 × 10^-5 M) | 36 to 55% | 36 to 55% | A |
| CCCn1c(=O)c2c(c(C)nn2C)n(CCC)c1=O [Example 9, 1,3-dimethyl-4,6-dipropyl-1H-pyra-3-zolo[4,3-d]pyrimidine-5,7-[4H,6H]dione] | A (56-100% inhibition at 1 × 10^-5 M) | A (56-100% inhibition at 1 × 10^-5 M) | – | A (56-100% inhibition at 1 × 10^-5 M) | 56 to 100% | 56 to 100% | – |
| CCCn1c(=O)[nH]c2c(C)nn(CC)c2c1=O [Example 5, 1H-1-Ethyl-3-methyl-6-propyl-pyrazolo[4,3-d]pyrimidine-5,7-[4H,6H]dione] | A (56-100% inhibition at 1 × 10^-5 M) | A (56-100% inhibition at 1 × 10^-5 M) | 0.458 µM and 0.992 µM and 0.378 µM and 0.401 µM | B (36-55% inhibition at 1 × 10^-5 M) | 56 to 100% | 56 to 100% | A |
